Reference: US11872226B2, “N-benzyl-2-phenoxybenzamide derivatives as prostaglandin E2 (PGE2) receptors modulators” (MEDIBIOFARMA, S.L., priority 2019, dated 2024)

Assays:
human EP2 receptor = molecular target: T1, human EP2 receptor (Homo sapiens, UniProt P43116); test: Competition binding in human EP2 receptor; settings: [3H]-Prostaglandin E2 competition, membranes from EP2 cell line
T1 construct: purchased Millipore HTS185M
Procedure: (§1) The compounds of the present invention were assayed for binding at human EP1, EP2, EP3 and EP4 receptors and were tested at several concentrations for IC50 determination.
Competition Binding in Human EP2 Receptor:
Prostaglandin EP2 receptor competition binding experiments were carried out in a polypropylene 96-well microplate plate with binding buffer (Hepes 50 mM, CaCl2 1 mM, MgCl2 5 mM, pH=7.4). In each well was incubated 10 μg of membranes from EP2 cell line (Millipore HTS185M, protein concentration=2000 μg/ml), 7.5 nM [3H]-Prostaglandin E2 (169.8 Ci/mmol, 0.1 mCi/ml, Perkin Elmer NET428250UC) and compounds studied and standard. Non-specific binding was determined in the presence of PGE2 200 μM (Cayman 14010). The reaction mixture (Vt: 250 μl/well) was incubated at 25° C. for 90 min, 200 μL was transferred to GF/C 96-well plate (Millipore, Madrid, Spain) after was filtered and washed four times with 250 μl wash buffer (Hepes 50 mM, NaCl 500 mM, pH=7.4), before measuring in a microplate beta scintillation counter (Microbeta Trilux, Perkin Elmer, Madrid, Spain). (Wilson et al., Br J Pharmacol 2006; 148:326-339).
(§2) The inhibition constants (Ki) were calculated using the Cheng Prusoff equation
(§3) [formula] where L=concentration of radioligand in the assay, and KD=affinity of the radioligand for the receptor. A scatchard plot is used to determine the KD.

human EP4 receptor = molecular target: T2, human EP4 receptor (Homo sapiens, UniProt P35408); test: Competition binding in human EP4 receptor; settings: [3H]-Prostaglandin E2 competition, membranes from HEK-EP4 cell line
T2 construct: expressed in transfected cells; host or cells: HEK-EP4 cell line; membranes prepared in house
Procedure: as §1
Competition Binding in Human EP4 Receptor:
Prostaglandin EP4 receptor competition binding experiments were carried out in a multiscreen GF/B 96-well plate (Millipore, Madrid, Spain) pretreated with binding buffer (Mes 25 mM, EDTA 1 mM, MgCl2 10 mM, pH=6.0). In each well was incubated 35 μg of membranes from HEK-EP4 cell line and prepared in our laboratory (Lot: A003/27-04-2011, protein concentration=2803 μg/ml), 1 nM [3H]-Prostaglandin E2 (169.8 Ci/mmol, 0.1 mCi/ml, Perkin Elmer NET428250UC) and compounds studied and standard. Non-specific binding was determined in the presence of PGE2 10 μM (Cayman 14010). The reaction mixture (Vt: 250 μl/well) was incubated at 25° C. for 120 min, 200 μL was transferred to GF/B 96-well plate (Millipore, Madrid, Spain) after was filtered and washed six times with 250 μl wash buffer (Mes 25 mM, BSA 0.01%, pH=6.0), before measuring in a microplate beta scintillation counter (Microbeta Trilux, Perkin Elmer, Madrid, Spain). (Abramovitz et al., Biochim Biophys Acta 2000; 1483:285-293).
as §2, §3

T2 sequence (P35408 whole entry): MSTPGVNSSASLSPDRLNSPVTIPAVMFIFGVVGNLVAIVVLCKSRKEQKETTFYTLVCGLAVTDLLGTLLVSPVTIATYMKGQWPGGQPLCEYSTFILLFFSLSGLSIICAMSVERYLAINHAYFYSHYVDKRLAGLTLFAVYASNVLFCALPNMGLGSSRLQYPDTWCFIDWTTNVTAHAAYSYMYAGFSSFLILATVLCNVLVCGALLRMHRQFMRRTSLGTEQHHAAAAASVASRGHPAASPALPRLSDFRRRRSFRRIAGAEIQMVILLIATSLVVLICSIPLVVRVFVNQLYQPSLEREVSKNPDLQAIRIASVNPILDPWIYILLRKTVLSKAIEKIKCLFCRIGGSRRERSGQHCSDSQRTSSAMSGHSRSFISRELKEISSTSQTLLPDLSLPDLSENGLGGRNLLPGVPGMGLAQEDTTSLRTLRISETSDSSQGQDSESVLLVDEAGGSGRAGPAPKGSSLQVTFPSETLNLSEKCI
T1 sequence (P43116 whole entry): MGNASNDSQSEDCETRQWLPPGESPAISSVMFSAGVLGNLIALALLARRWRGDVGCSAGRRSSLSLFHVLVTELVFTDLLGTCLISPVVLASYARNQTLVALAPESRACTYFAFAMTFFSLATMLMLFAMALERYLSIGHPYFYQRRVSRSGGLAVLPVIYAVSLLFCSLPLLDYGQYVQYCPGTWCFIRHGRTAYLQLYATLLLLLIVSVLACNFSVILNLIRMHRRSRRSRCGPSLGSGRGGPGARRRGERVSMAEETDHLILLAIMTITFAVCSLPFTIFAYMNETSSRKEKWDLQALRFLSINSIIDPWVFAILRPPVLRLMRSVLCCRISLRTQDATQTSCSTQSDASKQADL

Structure (SMILES) | Ki (human EP2 receptor) | Ki (human EP4 receptor)
O=C(O)c1ccc(CNC(=O)c2cc(-c3ccncc3)ccc2Oc2ccc(F)cc2)cc1 [Example 1, 4-((2-(4-fluorophenoxy)-5-(pyridin-4-yl)benzamido)methyl)benzoic acid] | ≥ 10000 nM | < 100 nM
N#Cc1cc(Cl)cc(-c2ccc(Oc3ccc(F)cc3)c(C(=O)NCc3ccc(C(=O)O)cc3)c2)c1 [Example 32, 4-((3′-chloro-5′-cyano-4-(4-fluorophenoxy)-[1,1′-biphenyl]-3-carboxamido)methyl)benzoic acid] | 1000 to 10000 nM | < 100 nM
O=C(O)c1ccc(CNC(=O)c2cc(-c3cccc(-c4ccncc4)c3)ccc2Oc2ccc(F)cc2)cc1 [Example 26, 4-((4-(4-fluorophenoxy)-3′-(pyridin-4-yl)-[1,1′-biphenyl]-3-ylcarboxamido)methyl)benzoic acid] | ≥ 10000 nM | < 100 nM
C[C@@H](NC(=O)c1cc(-c2cccc(C(F)(F)F)c2)ccc1Oc1ccc(F)cc1)c1ccc(C(=O)O)cc1 [Example 29, (R)-4-(1-(4-(4-fluorophenoxy)-3′-(trifluoromethyl)-[1,1′-biphenyl]-3-carboxamido)ethyl)benzoic acid] | 1000 to 10000 nM | < 100 nM
O=C(O)c1ccc(CNC(=O)c2cc(-c3cccc(C(F)(F)F)c3)ccc2Oc2ccc(F)cc2)c(F)c1 [Example 28, 3-fluoro-4-((4-(4-fluorophenoxy)-3′-(trifluoromethyl)-[1,1′-biphenyl]-3-ylcarboxamido)methyl)benzoic acid] | 1000 to 10000 nM | < 100 nM
O=C(O)c1ccc(CNC(=O)c2cc(-c3cc(F)cc(F)c3)ccc2Oc2ccc(F)cc2)cc1 [Example 19, 4-((3′,5′-difluoro-4-(4-fluorophenoxy)-[1,1′-biphenyl]-3-carboxamido)methyl)benzoic acid] | < 100 nM | < 100 nM
O=C(O)c1ccc(CNC(=O)c2cc(-c3ccccc3F)ccc2Oc2ccc(F)cc2)cc1 [Example 6, 4-((2′-fluoro-4-(4-fluorophenoxy)-[1,1′-biphenyl]-3-carboxamido)methyl) benzoic acid] | 1000 to 10000 nM | < 100 nM
O=C(O)c1ccc(CNC(=O)c2cc(-c3ccc(F)c(F)c3)ccc2Oc2ccc(F)cc2)cc1 [Example 13, 4-((3′,4′-difluoro-4-(4-fluorophenoxy)-[1,1′-biphenyl]-3-carboxamido)methyl)benzoic acid] | < 100 nM | 100 to 1000 nM
N#Cc1cc(F)cc(-c2ccc(Oc3ccc(F)cc3)c(C(=O)NCc3ccc(C(=O)O)cc3)c2)c1 [Example 31, 4-((3′-fluoro-5′-cyano-4-(4-fluorophenoxy)-[1,1′-biphenyl]-3-carboxamido)methyl)benzoic acid] | 1000 to 10000 nM | < 100 nM
O=C(O)c1ccc(CNC(=O)c2cc(-c3cccc(Cl)c3)ccc2Oc2ccc(F)cc2)cc1 [Example 20, 4-((3′-chloro-4-(4-fluorophenoxy)-[1,1′-biphenyl]-3-carboxamido)methyl) benzoic acid] | 1000 to 10000 nM | < 100 nM
O=C(O)c1ccc(CNC(=O)c2cc(-c3cccnc3)ccc2Oc2ccc(F)cc2)cc1 [Example 10, 4-((2-(4-fluorophenoxy)-5-(pyridin-3-yl)benzamido)methyl)benzoic acid] | 1000 to 10000 nM | < 100 nM
O=C(O)c1ccc(CNC(=O)c2cc(-c3cc(F)cc(C(F)(F)F)c3)ccc2Oc2ccc(F)cc2)cc1 [Example 21, 4-((3′-fluoro-4-(4-fluorophenoxy)-5′-(trifluoromethyl)-[1,1′-biphenyl]-3-carboxamido)methyl)benzoic acid] | < 100 nM | < 100 nM
O=C(O)c1ccc(CNC(=O)c2cc(-c3cccs3)ccc2Oc2ccc(F)cc2)cc1 [Example 18, 4-((2-(4-fluorophenoxy)-5-(thiophen-2-yl)benzamido)methyl)benzoic acid] | 1000 to 10000 nM | < 100 nM
O=C(O)c1ccc(CNC(=O)c2cc(-c3ccc(F)cc3)ccc2Oc2ccc(F)cc2)cc1 [Example 4, 4-((4′-fluoro-4-(4-fluorophenoxy)-[1,1′-biphenyl]-3-carboxamido)methyl) benzoic acid] | < 100 nM | < 100 nM
O=C(O)c1ccc(CNC(=O)c2cc(-c3ccncc3Cl)ccc2Oc2ccc(F)cc2)cc1 [Example 11, 4-((2-(4-fluorophenoxy)-5-(3-chloropyridin-4-yl)benzamido)methyl)benzoic acid] | ≥ 10000 nM | 100 to 1000 nM
N#Cc1ccc(-c2ccc(Oc3ccc(F)cc3)c(C(=O)NCc3ccc(C(=O)O)cc3)c2)cc1 [Example 7, 4-((4′-cyano-4-(4-fluorophenoxy)-[1,1′-biphenyl]-3-carboxamido)methyl) benzoic acid] | 1000 to 10000 nM | < 100 nM
O=C(O)c1ccc(CNC(=O)c2cc(-c3cccc(F)c3)ccc2Oc2ccc(F)cc2)cc1 [Example 5, 4-((3′-fluoro-4-(4-fluorophenoxy)-[1,1′-biphenyl]-3-carboxamido)methyl) benzoic acid] | < 100 nM | < 100 nM
O=C(O)c1ccc(CNC(=O)c2cc(-c3ccccc3)ccc2Oc2ccc(F)cc2)cc1 [Example 2, 4-((4-(4-fluorophenoxy)-[1,1′-biphenyl]-3-carboxamido)methyl)benzoic acid] | ≥ 10000 nM | < 100 nM
O=C(O)c1ccc(CNC(=O)c2cc(-c3cncnc3)ccc2Oc2ccc(F)cc2)cc1 [Example 12, 4-((2-(4-fluorophenoxy)-5-(pyrimidin-5-yl)benzamido)methyl)benzoic acid] | ≥ 10000 nM | 100 to 1000 nM
O=C(O)c1ccc(CNC(=O)c2cc(-c3cccc(C(F)(F)F)c3)ccc2Oc2ccc(F)cc2)cc1 [Example 15, 4-((4-(4-fluorophenoxy)-3′-(trifluoromethyl)-[1,1′-biphenyl]-3-carboxamido)methyl)benzoic acid] | < 100 nM | < 100 nM
O=C(O)c1ccc(CNC(=O)c2cc(-c3ccc(C(F)(F)F)cc3)ccc2Oc2ccc(F)cc2)cc1 [Example 14, 4-((4-(4-fluorophenoxy)-4′-(trifluoromethyl)-[1,1′-biphenyl]-3-carboxamido)methyl)benzoic acid] | 100 to 1000 nM | 1000 to 10000 nM
O=C(O)c1ccc(CNC(=O)c2cc(-c3ccc(Cl)cc3)ccc2Oc2ccc(F)cc2)cc1 [Example 3, 4-((4′-chloro-4-(4-fluorophenoxy)-[1,1′-biphenyl]-3-carboxamido)methyl) benzoic acid] | ≥ 10000 nM | < 100 nM
N#Cc1cccc(-c2ccc(Oc3ccc(F)cc3)c(C(=O)NCc3ccc(C(=O)O)cc3)c2)c1 [Example 8, 4-((3′-cyano-4-(4-fluorophenoxy)-[1,1′-biphenyl]-3-carboxamido)methyl) benzoic acid] | < 100 nM | < 100 nM
O=C(O)c1ccc(C2(NC(=O)c3cc(-c4cccc(C(F)(F)F)c4)ccc3Oc3ccc(F)cc3)CC2)cc1 [Example 30, 4-(1-(4-(4-fluorophenoxy)-3′-(trifluoromethyl)-[1,1′-biphenyl]-3-carboxamido)cyclopropyl)benzoic acid] | 1000 to 10000 nM | < 100 nM
NC(=O)c1ccc(-c2ccc(Oc3ccc(F)cc3)c(C(=O)NCc3ccc(C(=O)O)cc3)c2)o1 [Example 27, 4-((5-(5-carbamoylfuran-2-yl)-2-(4-fluorophenoxy)benzamido)methyl) benzoic acid] | 1000 to 10000 nM | 1000 to 10000 nM
O=C(O)c1ccc(CNC(=O)c2cc(-c3ccncc3F)ccc2Oc2ccc(F)cc2)cc1 [Example 9, 4-((2-(4-fluorophenoxy)-5-(3-fluoropyridin-4-yl)benzamido)methyl)benzoic acid] | 1000 to 10000 nM | < 100 nM
